Measurements reported in paper PMC10328120 (Nature, 2022).
Where two headings read alike, the source gives them in different places.

Tests used:
C57BL/6J mice [1] = settings: mouse, in vivo
mouse [2] = settings: in vivo
mouse [3] = settings: in vivo; remark: listed apart in the source
C57BL/6J mice [4] = settings: mouse, in vivo; remark: listed apart in the source
C57BL/6J mice [5] = settings: mouse, in vivo; remark: listed apart in the source
mouse [6] = settings: in vivo; remark: listed apart in the source
μOR [7] = target: T1, μOR (Homo sapiens, UniProt P35372); assay: cell-based; format: cell-based
μOR [8] = target: T1, μOR; assay: cell-based; format: cell-based; settings: for Emax: read-out: β-arr1 Emax % ± SEM
μOR [9] = target: T1, μOR; assay: cell-based; format: cell-based; remark: listed apart in the source

T1 sequence (P35372 whole entry): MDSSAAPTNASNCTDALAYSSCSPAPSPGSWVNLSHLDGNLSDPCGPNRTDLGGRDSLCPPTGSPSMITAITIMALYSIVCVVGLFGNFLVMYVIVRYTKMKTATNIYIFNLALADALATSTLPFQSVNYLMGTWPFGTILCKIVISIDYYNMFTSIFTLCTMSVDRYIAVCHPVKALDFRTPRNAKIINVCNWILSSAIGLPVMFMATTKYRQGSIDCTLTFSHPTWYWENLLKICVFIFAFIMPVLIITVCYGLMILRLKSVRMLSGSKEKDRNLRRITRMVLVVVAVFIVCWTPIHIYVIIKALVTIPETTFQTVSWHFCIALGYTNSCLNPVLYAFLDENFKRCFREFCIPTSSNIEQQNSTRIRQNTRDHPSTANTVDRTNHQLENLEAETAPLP

Row | SMILES | Gz Emax % ± SEM (μOR [7]) | β-arrestin-1 recruitment, maximum value (μOR [8]) [%] | β-arrestin-1 recruitment, median value (μOR [8]) [%] | β-arrestin-1 recruitment, minimum value (μOR [8]) [%] | β-arrestin-2 recruitment, maximum value (μOR [9]) [%] | β-arrestin-2 recruitment, median value (μOR [9]) [%] | β-arrestin-2 recruitment, minimum value (μOR [9]) [%] | Emax (μOR [7]; read-out: G0a Emax % ± SEM) [%] | Emax (μOR [7]; read-out: G0b Emax % ± SEM) [%] | Emax (μOR [7]; read-out: Gi1 Emax % ± SEM) [%] | Emax (μOR [7]; read-out: Gi2 Emax % ± SEM) [%] | Emax (μOR [7]; read-out: Gi3 Emax % ± SEM) [%] | Emax (μOR [7]; read-out: Gz Emax % ± SEM) [%] | Emax (μOR [8]) [%] | β-arr2 Emax % ± SEM (μOR [9]) [%] | further results
1 | CN1CC[C@]23c4c5ccc(O)c4O[C@H]2[C@@H](O)C=C[C@H]3[C@H]1C5 [Morphine] |  |  |  |  |  |  |  |  |  |  |  |  |  |  |  | ED50 95% confidence interval (C57BL/6J mice [1]): 4.4 to 8.43 nmol; Median antinociceptive dose (ED50) (C57BL/6J mice [1]): 6.6 nmol; Antinociception in writhing assay (mouse [2]): significant antinociception compared with vehicle or saline; Number of writhes over 15 min, maximum (mouse [2]): 32; Number of writhes over 15 min, median (mouse [2]): 0; Number of writhes over 15 min, minimum (mouse [2]): 0; Antinociception in formalin assay (mouse [3]): significant antinociception compared with vehicle or saline; Formalin assay response, maximum (mouse [3]): 95 s; Formalin assay response, median (mouse [3]): 7 s; Formalin assay response, minimum (mouse [3]): 1 s; Ambulations (locomotor effect) (C57BL/6J mice [4]): hyperlocomotion; Breath rates (C57BL/6J mice [5]): decrease; Post-conditioning (post-CPP), maximum (mouse [6]): 819 s; Post-conditioning (post-CPP), median (mouse [6]): 154 s; Post-conditioning (post-CPP), minimum (mouse [6]): -299 s; Pre-conditioning (pre-CPP) difference in time on drug-paired side, minimum (mouse [6]): -542 s; Pre-conditioning (pre-CPP), maximum (mouse [6]): 413 s; Pre-conditioning (pre-CPP), median (mouse [6]): -23 s
2 | CC[C@@H]1CN2CC[C@@]3(O)C(=Nc4cccc(OC)c43)[C@@H]2C[C@@H]1/C(=C\OC)C(=O)OC [7-OH, 7-hydroxymitragynine] | 73 ± 2.8% | 0.3 | −1.4 | −8.0 | 25.2 | −2.4 | −13.1 |  |  |  |  |  |  |  |  | G0a Emax % ± SEM (μOR [7]): 65 ± 4.9%; G0b Emax % ± SEM (μOR [7]): 56 ± 3.5%; Gi1 Emax % ± SEM (μOR [7]): 31 ± 4.9%; Gi2 Emax % ± SEM (μOR [7]): 53 ± 5.1%; Respiratory effect (C57BL/6J mice [5]; sc): respiratory depression similar to that caused by morphine
3 | CC(C)=CCN1CCC2(C)c3cc(O)ccc3CC1C2C (stereo not drawn) [Pentazocine] | full agonist |  |  |  |  |  |  | 89 ± 4 | 89 ± 3.2 | 75 ± 1.8 | 78 ± 3.8 | 73 ± 2.3 | 103 ± 1.5 | 7 ± 4.51 |  | Emax (μOR [9]; read-out: β-arr2 Emax % ± SEM): 13 ± 4.04%
4 | C[C@@H](NC(=O)[C@@H](N)Cc1ccc(O)cc1)C(=O)NCC(=O)N(C)[C@@H](Cc1ccccc1)C(=O)NCCO [DAMGO] |  | 100 | 100 | 100 | 100 | 100 | 100 |  |  |  |  |  |  |  |  | 
5 | COc1ccc2c3c1O[C@H]1C(=O)CC[C@@]4(O)[C@@H](C2)N(C)CC[C@]314 [Oxycodone] | full agonist |  |  |  |  |  |  | 102 ± 5.2 | 110 ± 3.4 |  | 83 ± 5.7 | 75 ± 3.8 | 102 ± 4.9 | 81 ± 7.9 | 80 ± 3.9 | 
6 | COc1ccsc1CNCC[C@@]1(c2ccccn2)CCOC2(CCCC2)C1 [TRV130] |  |  |  |  |  |  |  | 67 ± 5.3 | 76 ± 4.4 | 58 ± 3.8 | 58 ± 4.2 | 45 ± 3.3 | 98 ± 2.2 |  | 26 ± 5.9 | 
